One experiment has as its target T1, COX-1 (Ovis aries, UniProt P05979).
T1 construct: gene PTGS1; kit is understood to hold ovine COX-1
T1 sequence (P05979 25-600): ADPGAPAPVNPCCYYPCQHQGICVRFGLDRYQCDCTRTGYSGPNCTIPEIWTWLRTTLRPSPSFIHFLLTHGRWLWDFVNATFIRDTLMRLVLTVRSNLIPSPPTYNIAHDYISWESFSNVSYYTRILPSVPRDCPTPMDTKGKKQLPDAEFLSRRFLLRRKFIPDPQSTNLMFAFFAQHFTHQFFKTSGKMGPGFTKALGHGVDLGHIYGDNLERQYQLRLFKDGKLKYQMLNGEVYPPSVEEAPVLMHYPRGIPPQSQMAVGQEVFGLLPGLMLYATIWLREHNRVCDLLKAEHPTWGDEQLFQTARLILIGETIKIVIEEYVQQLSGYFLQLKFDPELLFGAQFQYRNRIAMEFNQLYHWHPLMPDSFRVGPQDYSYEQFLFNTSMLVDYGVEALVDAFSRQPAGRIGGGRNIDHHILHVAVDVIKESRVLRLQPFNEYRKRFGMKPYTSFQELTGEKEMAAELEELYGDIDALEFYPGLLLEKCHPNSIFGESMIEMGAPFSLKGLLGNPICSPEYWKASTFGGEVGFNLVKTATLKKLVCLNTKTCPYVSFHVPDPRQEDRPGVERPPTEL
The experiment in a line: colorimetric COX peroxidase assay (Cayman […]), […] nm. Type of experiment: biochemical. The settings on record: read-out: IC50 [μM] (SD) / COX-1.

The target of a further experiment is T2, COX-2 (Homo sapiens, UniProt P35354).
T2 construct: gene PTGS2; kit is understood to hold human recombinant COX-2 (docking used PDB 4M11, not the assay protein)
T2 sequence (P35354 18-604): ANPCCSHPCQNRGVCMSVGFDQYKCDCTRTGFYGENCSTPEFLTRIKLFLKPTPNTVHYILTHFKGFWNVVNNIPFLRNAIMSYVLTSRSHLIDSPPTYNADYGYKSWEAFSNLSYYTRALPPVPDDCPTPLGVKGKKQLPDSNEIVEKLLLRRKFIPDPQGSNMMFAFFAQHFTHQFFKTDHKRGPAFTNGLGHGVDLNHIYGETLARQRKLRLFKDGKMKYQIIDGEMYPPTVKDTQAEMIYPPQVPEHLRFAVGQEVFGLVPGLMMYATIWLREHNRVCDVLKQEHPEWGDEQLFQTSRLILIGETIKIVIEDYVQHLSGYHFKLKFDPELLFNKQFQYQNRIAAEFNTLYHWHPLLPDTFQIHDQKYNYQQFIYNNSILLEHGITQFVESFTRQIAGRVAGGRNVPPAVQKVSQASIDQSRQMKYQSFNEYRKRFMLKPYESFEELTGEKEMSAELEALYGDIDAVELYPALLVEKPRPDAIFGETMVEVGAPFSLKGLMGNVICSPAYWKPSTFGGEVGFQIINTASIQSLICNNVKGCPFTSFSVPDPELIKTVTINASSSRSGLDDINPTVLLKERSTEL
The experiment in a line: colorimetric COX peroxidase assay (Cayman […]), […] nm. It counts as biochemical. The following applies: read-out: IC50 [μM] (SD) / COX-2.

This passage reports IC50 results from paper PMC8431030, “In Vitro and In Silico Evaluation of New 1,3,4-Oxadiazole Derivatives of Pyrrolo[3,4-d]pyridazinone as Promising Cyclooxygenase Inhibitors” (International Journal of Molecular Sciences, 2021).

`CCCCn1c(C)c2c(OCc3nn(CN4CCN(c5cc(C)ccc5C)CC4)c(=S)o3)nn(C)c(=O)c2c1C` [2b, 3,5,7-Trimethyl-6-butyl-1-[[4-[(4-(2,5-dimethylphenyl)piperazin-1-yl)methyl]-2-thioxo-1,3,4-oxadiazol-5-yl]methoxy]pyrrolo[3,4-d]pyridazin-4-one]: the IC50 was 50 µM on COX-1 and 49.4 µM at COX-2.

For the compound `Cc1ccc(C)c(N2CCN(C(=O)CSc3nnc(COc4nn(C)c(=O)c5c(C)n(-c6ccccc6)c(C)c45)o3)CC2)c1` [5a, 3,5,7-trimethyl-1-[[2-[2-oxo-2-(4-(2,5-dimethylphenyl)piperazin-1-yl)ethyl]sulfanyl-1,3,4-oxadiazol-5-yl]methoxy]-6-phenyl-pyrrolo[3,4-d]pyridazin-4-one], the results for the IC50 at COX-1 and at COX-2 were 53.2 µM and 50.1 µM, respectively.

As for `CCCCn1c(C)c2c(OCc3nnc(SCC(=O)N4CCN(c5ccc(F)cc5F)CC4)o3)nn(C)c(=O)c2c1C` [6b, 3,5,7-trimethyl-1-[[2-[2-oxo-2-(4-(2,4-difluorophenyl)piperazin-1-yl)ethyl]sulfanyl-1,3,4-oxadiazol-5-yl]methoxy]-6-butyl-pyrrolo[3,4-d]pyridazin-4-one], the IC50 amounted to 51.1 µM at COX-1 and 50.1 µM at COX-2.

With `Cc1ccc(C)c(N2CCN(Cn3nc(COc4nn(C)c(=O)c5c(C)n(-c6ccccc6)c(C)c45)oc3=S)CC2)c1` [2a, 3,5,7-Trimethyl-6-phenyl-1-[[4-[(4-(2,5-dimethylphenyl)piperazin-1-yl)methyl]-2-thioxo-1,3,4-oxadiazol-5-yl]methoxy]pyrrolo[3,4-d]pyridazin-4-one], the IC50 at COX-1 was 50.3 µM; on COX-2, 49.7 µM.

With `Cc1c2c(OCc3n[nH]c(=S)o3)nn(C)c(=O)c2c(C)n1-c1ccccc1` [1a], the IC50 at COX-1 was 130 µM; at COX-2 it was 43.6 µM.

Take `Cc1c2c(OCc3nn(CN4CCN(c5ccc(F)cc5F)CC4)c(=S)o3)nn(C)c(=O)c2c(C)n1-c1ccccc1` [3a, 3,5,7-Trimethyl-6-phenyl-1-[[4-[(4-(2,4-difluorophenyl)piperazin-1-yl)methyl]-2-thioxo-1,3,4-oxadiazol-5-yl]methoxy]pyrrolo[3,4-d]pyridazin-4-one]: the IC50 amounted to 50.3 µM at COX-1 and 49.7 µM on COX-2.

For the compound `Cc1c2c(OCc3nn(CN4CCN(c5ccc(Cl)c(Cl)c5)CC4)c(=S)o3)nn(C)c(=O)c2c(C)n1-c1ccccc1` [4a, 3,5,7-Trimethyl-6-phenyl-1-[[4-[(4-(3,4-dichlorophenyl)piperazin-1-yl)methyl]-2-thioxo-1,3,4-oxadiazol-5-yl]methoxy]pyrrolo[3,4-d]pyridazin-4-one], the IC50 was 50.2 µM at COX-1 and 49.2 µM at COX-2.

Turning to `CCCCn1c(C)c2c(OCc3nn(CN4CCN(c5ccc(Cl)c(Cl)c5)CC4)c(=S)o3)nn(C)c(=O)c2c1C` [4b, 3,5,7-Trimethyl-6-butyl-1-[[4-[(4-(3,4-dichlorophenyl)piperazin-1-yl)methyl]-2-thioxo-1,3,4-oxadiazol-5-yl]methoxy]pyrrolo[3,4-d]pyridazin-4-one], the figures for the IC50 at COX-1 and at COX-2 were 56.8 µM and 57.3 µM, respectively.

As for `CCCCn1c(C)c2c(OCc3nnc(SCC(=O)N4CCN(c5ccc(Cl)c(Cl)c5)CC4)o3)nn(C)c(=O)c2c1C` [7b, 3,5,7-trimethyl-1-[[2-[2-oxo-2-(4-(3,4-dichlorophenyl)piperazin-1-yl)ethyl]sulfanyl-1,3,4-oxadiazol-5-yl]methoxy]-6-butyl-pyrrolo[3,4-d]pyridazin-4-one], the IC50 on COX-1 came out at 50.9 µM; on COX-2 it was 49.5 µM.

On to `CCCCn1c(C)c2c(OCc3n[nH]c(=S)o3)nn(C)c(=O)c2c1C` [1b], for which the IC50 was 138 µM on COX-1 and 63.4 µM on COX-2.

In the case of `CCCCn1c(C)c2c(OCc3nnc(SCC(=O)N4CCN(c5cc(C)ccc5C)CC4)o3)nn(C)c(=O)c2c1C` [5b, 3,5,7-trimethyl-1-[[2-[2-oxo-2-(4-(2,5-dimethylphenyl)piperazin-1-yl)ethyl]sulfanyl-1,3,4-oxadiazol-5-yl]methoxy]-6-butyl-pyrrolo[3,4-d]pyridazin-4-one], the IC50 on COX-1 was 51.8 µM; at COX-2, 53.8 µM.

As for `Cc1c2c(OCc3nnc(SCC(=O)N4CCN(c5ccc(Cl)c(Cl)c5)CC4)o3)nn(C)c(=O)c2c(C)n1-c1ccccc1` [7a, 3,5,7-trimethyl-1-[[2-[2-oxo-2-(4-(3,4-dichloro)piperazin-1-yl)ethyl]sulfanyl-1,3,4-oxadiazol-5-yl]methoxy]-6-phenyl-pyrrolo[3,4-d]pyridazin-4-one], the IC50 worked out at 51.6 µM on COX-1 and 50.3 µM on COX-2.

Turning to `Cc1c2c(OCc3nnc(SCC(=O)N4CCN(c5ccc(F)cc5F)CC4)o3)nn(C)c(=O)c2c(C)n1-c1ccccc1` [6a, 3,5,7-trimethyl-1-[[2-[2-oxo-2-(4-(2,4-difluorophenyl)piperazin-1-yl)ethyl]sulfanyl-1,3,4-oxadiazol-5-yl]methoxy]-6-phenyl-pyrrolo[3,4-d]pyridazin-4-one], the values for the IC50 at COX-1 and at COX-2 were 52.3 µM and 50.2 µM, respectively.

For `CCCCn1c(C)c2c(OCc3nn(CN4CCN(c5ccc(F)cc5F)CC4)c(=S)o3)nn(C)c(=O)c2c1C` [3b], the IC50 at COX-1 was determined as 54.3 µM; on COX-2, 56 µM.
